Read-outs that look alike come from different tables or passages of the source.
Key:
HEK293 cells = conditions: step-wise concentrations 0.01 to 300 μM, OD490, FIG. 4 and FIG. 8
HL-7002 cells [1] = conditions: step-wise concentrations 0.01 to 300 μM, OD490, FIG. 3 and FIG. 7
HCT-116 cells = test: MTS cell viability assay in colorectal cancer cell line HCT-116; format: cell-based; conditions: step-wise concentrations 0.01 to 300 μM, OD490, FIG. 5, read-out: IC50 for the reduction of HCT-116 cell number
Method: (§1) The index of cell growth repression ratio was obtained by comparing the OD490 data of treatment group to the negative control. The drug response rate IC50 was calculated with the SPSS 16.0 system.
(§2) The cells were cultured in RPMI+5% Fetal Bovine Serum (FBS).
(§3) The cells were monitored daily, and the cell viability was evaluated with the Promega CellTiter 96 AQueous One Solution Cell Proliferation Assay (Promega, Madison, Wis., USA) according to the manufacture manuals. The cell viability was monitored at OD490 reading in a bio-spectrometer (Perkin Elmer, Walthan, Mass., USA).
(§4) Data analysis: The OD490 reading data were collected hourly from 1 h to 4 h after the addition of lysis buffer. The index of cell growth repression ratio was obtained by comparing the OD490 data of treatment to the negative control. The drug response rate IC50 was calculated with the SPSS 16.0.

HT29 cells = test: MTS cell viability assay in colorectal cancer cell line HT29; format: cell-based; conditions: step-wise concentrations 0.01 to 300 μM, OD490, FIG. 6
Method: HT29 cells are a colorectal cancer cell line. […] The index of cell growth repression ratio was obtained by comparing the OD490 data of treatment group to the negative control. The drug response rate IC50 was calculated with the SPSS 16.0 system.
as §2, §3, §4

HL-7002 cells [2] = test: cells; conditions: Homo sapiens, Hepatocyte
PC-3 cells = test: MTS cell viability assay (CellTiter 96 AQueous One) in PC-3 prostate cancer cells; format: cell-based, human; conditions: step-wise concentrations 0.01 to 300 μM, OD490, FIG. 1
Method: as §1
(§5) Cell culture: Prostate cancer cell lines LNCaP and PC-3 were purchased from ATCC (Manassas, Va.). […] The cells were cultured in RPMI+5% Fetal Bovine Serum (FBS).
(§6) The cells treated with the solvents were used as the negative control, and cisplatin and docetaxel were used as the positive controls. The cells were monitored daily, and the cell viability was evaluated with the Promega CellTiter 96 AQueous One Solution Cell Proliferation Assay (Promega, Madison, Wis., USA) according to the manufacture manuals. The cell viability was monitored at OD490 reading in a bio-spectrometer (Perkin Elmer, Walthan, Mass., USA).
as §4

LNCaP cells = test: MTS cell viability assay (CellTiter 96 AQueous One) in LNCaP prostate cancer cells; format: cell-based, human; conditions: step-wise concentrations 0.01 to 300 μM, OD490, FIG. 2
Method: as §1, §5, §6
Data analysis: The OD490 reading data were collected hourly from 1 h to 4 h after the addition of lysis buffer. The index of cell growth repression ratio was obtained by comparing the OD490 data of treatment to the negative control.

Compound	IC50 (HEK293 cells)	IC50 (HL-7002 cells [1])	IC50 (HCT-116 cells)	IC50 (HT29 cells)	IC50 (HL-7002 cells [2])	IC50 (PC-3 cells)	IC50 (LNCaP cells)
O=C1[O][Pt]2([NH][C@@H]3CCCC[C@H]3[NH]2)[O]C1=O [oxaliplatin]	10100 nM	2440 nM	8150 nM	30000 nM	–	–	–
CC(=O)O[C@@]12CO[C@@H]1C[C@H](O)[C@@]1(C)C(=O)[C@H](O)C3=C(C)[C@@H](OC(=O)[C@H](O)[C@@H](NC(=O)OC(C)(C)C)c4ccccc4)C[C@@](O)([C@@H](OC(=O)c4ccccc4)[C@H]21)C3(C)C [docetaxel]	–	–	–	–	95 nM	–	–
cisplatin	6900 nM	2010 nM	–	–	–	2490 nM	2240 nM

— patent US10428099B2, “Pharmaceutical co-crystal composition and use thereof” (SYN-NAT PRODUCTS ENTERPRISE LLC, priority 2015, dated 2019)
